Laboratory results as given in ChEMBL document CHEMBL6134884, “Identification of JNJ-61803534, a RORγt Inverse Agonist for the Treatment of Psoriasis” (J Med Chem, 2025).
pIC50: −log10 of the molar value.

Columns and labels:
[1] = Aqueous solubility of the compound at pH 7; type: physicochemical; conditions: aqueous solution
[2] = Aqueous solubility of the compound at pH 2; type: physicochemical; conditions: aqueous solution
[3] = target: T1, Nuclear receptor subfamily 1 group I member 2 (Homo sapiens, UniProt O75469); assay: Activation of human PXR at 1 uM relative to control; type: toxicity
T1 sequence (O75469 whole entry): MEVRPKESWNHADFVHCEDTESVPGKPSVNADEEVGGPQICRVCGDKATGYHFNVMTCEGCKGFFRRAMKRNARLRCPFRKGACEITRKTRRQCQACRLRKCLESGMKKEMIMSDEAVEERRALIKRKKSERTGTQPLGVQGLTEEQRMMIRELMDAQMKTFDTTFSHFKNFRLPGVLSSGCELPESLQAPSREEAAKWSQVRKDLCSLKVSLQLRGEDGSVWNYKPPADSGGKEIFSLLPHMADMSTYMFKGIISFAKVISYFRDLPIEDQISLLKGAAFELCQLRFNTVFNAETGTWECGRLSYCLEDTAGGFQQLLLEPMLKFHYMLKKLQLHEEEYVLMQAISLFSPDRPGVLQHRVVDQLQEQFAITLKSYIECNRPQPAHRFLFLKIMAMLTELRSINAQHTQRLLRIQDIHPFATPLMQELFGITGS

Cytochrome P450 3A4 [4] = target: T2, Cytochrome P450 3A4 (Homo sapiens, UniProt P08684); assay: Induction of CYP3A4 in human hepatocytes at 10 uM relative to control; type: ADME, cell-based, Hepatocyte
[5] = Inverse agonist activity at RORgammat in rat whole blood assessed as IL-17A production incubated for 1 hrs by ELISA analysis; type: tissue-based
[6] = target: T3, Nuclear receptor ROR-gamma (Mus musculus, UniProt P51450); assay: Inverse agonist activity at RORgammat in mouse whole blood assessed as IL-17A production incubated for 1 hrs by ELISA analysis
T3 sequence (P51450 whole entry): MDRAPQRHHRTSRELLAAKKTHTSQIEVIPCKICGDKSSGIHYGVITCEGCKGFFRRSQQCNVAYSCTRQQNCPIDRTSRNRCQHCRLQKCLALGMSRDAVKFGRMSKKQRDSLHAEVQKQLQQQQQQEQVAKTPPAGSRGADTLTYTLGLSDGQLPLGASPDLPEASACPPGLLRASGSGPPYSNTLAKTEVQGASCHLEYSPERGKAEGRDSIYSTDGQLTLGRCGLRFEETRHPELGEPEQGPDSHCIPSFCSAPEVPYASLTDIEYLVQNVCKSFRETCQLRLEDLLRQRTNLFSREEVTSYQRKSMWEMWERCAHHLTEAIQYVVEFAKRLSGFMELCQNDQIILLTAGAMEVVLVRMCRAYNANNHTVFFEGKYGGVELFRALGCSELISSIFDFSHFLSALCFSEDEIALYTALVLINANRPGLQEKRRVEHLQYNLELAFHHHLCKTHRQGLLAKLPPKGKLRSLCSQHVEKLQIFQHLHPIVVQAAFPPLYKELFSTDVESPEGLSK

[7] = Metabolic stability in human liver microsomes assessed as half life; type: ADME, Microsome
[8] = Metabolic stability in rat liver microsomes assessed as half life; type: ADME, Microsome
[9] = Metabolic stability in mouse liver microsomes assessed as half life; type: ADME, Microsome
[10] = Plasma protein binding in human assessed as unbound fraction; type: ADME, cell-free
[11] = Plasma protein binding in rat assessed as unbound fraction; type: ADME, cell-free
[12] = Plasma protein binding in mouse assessed as unbound fraction; type: ADME, cell-free
[13] = Volume of distribution at steady state in male Sprague-Dawley rat at 5 mg/kg, po or 1 mg/kg, iv measured 24 hrs post dose by LC-MS/MS analysis; type: ADME, organism-based; conditions: in vivo
[14] = Half life in male Sprague-Dawley rat at 5 mg/kg, po or 1 mg/kg, iv measured 24 hrs post dose by LC-MS/MS analysis; type: ADME, organism-based; conditions: in vivo
[15] = Oral bioavailability in male Sprague-Dawley rat at 5 mg/kg measured 24 hrs post dose by LC-MS/MS analysis; type: ADME, organism-based; conditions: in vivo
[16] = Volume of distribution at steady state in male overnight fasted Beagle dog at 5 mg/kg, po or 1 mg/kg, iv measured 24 hrs post dose by LC-MS/MS analysis; type: ADME, organism-based, Canis lupus familiaris; conditions: in vivo
[17] = Half life in male overnight fasted Beagle dog at 5 mg/kg, po or 1 mg/kg, iv measured 24 hrs post dose by LC-MS/MS analysis; type: ADME, organism-based, Canis lupus familiaris; conditions: in vivo
[18] = Oral bioavailability in male overnight fasted Beagle dog at 5 mg/kg measured 24 hrs post dose by LC-MS/MS analysis; type: ADME, organism-based, Canis lupus familiaris; conditions: in vivo
Cytochrome P450 3A4 [19] = target: T2, Cytochrome P450 3A4; assay: Inhibition of human CYP3A4; type: ADME
Cytochrome P450 2C8 = target: T4, Cytochrome P450 2C8 (Homo sapiens, UniProt P10632); assay: Inhibition of human CYP2C8; type: ADME
T4 sequence (P10632 whole entry): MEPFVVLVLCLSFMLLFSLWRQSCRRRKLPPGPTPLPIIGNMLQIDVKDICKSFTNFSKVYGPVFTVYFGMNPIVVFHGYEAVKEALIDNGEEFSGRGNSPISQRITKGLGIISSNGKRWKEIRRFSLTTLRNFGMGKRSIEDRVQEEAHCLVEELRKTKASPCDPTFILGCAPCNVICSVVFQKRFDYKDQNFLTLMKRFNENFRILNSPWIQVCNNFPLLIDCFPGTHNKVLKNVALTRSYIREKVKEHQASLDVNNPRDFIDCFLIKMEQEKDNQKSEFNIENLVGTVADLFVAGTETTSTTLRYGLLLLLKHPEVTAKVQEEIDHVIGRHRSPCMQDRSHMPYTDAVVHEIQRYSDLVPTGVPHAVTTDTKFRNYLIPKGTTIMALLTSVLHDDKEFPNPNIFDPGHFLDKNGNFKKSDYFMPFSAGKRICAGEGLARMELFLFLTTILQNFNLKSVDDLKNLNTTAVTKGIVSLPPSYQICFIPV

Cytochrome P450 2C9 = Cytochrome P450 2C9 (Homo sapiens, UniProt P11712); assay: Inhibition of human CYP2C9; type: ADME
Cytochrome P450 2C19 = Cytochrome P450 2C19 (Homo sapiens, UniProt P33261); assay: Inhibition of human CYP2C19; type: ADME
Cytochrome P450 2D6 = Cytochrome P450 2D6 (Homo sapiens, UniProt P10635); assay: Inhibition of human CYP2D6; type: ADME
Cytochrome P450 3A4 [20] = target: T2, Cytochrome P450 3A4; assay: Time dependent inhibition of CYP3A4 (unknown origin); type: ADME
[21] = target: T5, Nuclear receptor subfamily 1 group I member 3 (Homo sapiens, UniProt Q14994); assay: Agonist activity at CAR (unknown origin) up to 1.5 uM by mammalian 1-hybrid assay
T5 sequence (Q14994 whole entry): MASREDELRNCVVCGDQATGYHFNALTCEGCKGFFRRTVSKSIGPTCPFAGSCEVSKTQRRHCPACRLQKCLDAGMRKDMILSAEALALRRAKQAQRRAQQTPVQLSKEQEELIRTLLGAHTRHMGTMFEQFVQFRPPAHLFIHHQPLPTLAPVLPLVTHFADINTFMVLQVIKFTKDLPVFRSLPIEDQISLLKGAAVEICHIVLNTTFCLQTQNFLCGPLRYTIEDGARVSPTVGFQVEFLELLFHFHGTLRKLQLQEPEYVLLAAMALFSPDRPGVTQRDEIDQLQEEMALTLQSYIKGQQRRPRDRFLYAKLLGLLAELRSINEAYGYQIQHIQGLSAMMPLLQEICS

[22] = target: T5, Nuclear receptor subfamily 1 group I member 3; assay: Antagonist activity at CAR (unknown origin) up to 1.5 uM by mammalian 1-hybrid assay
[23] = target: Voltage-gated inwardly rectifying potassium channel KCNH2 (Homo sapiens, UniProt Q12809); assay: Inhibition of hERG by Q-patch clamp method; type: toxicity
hERG = hERG (Homo sapiens, UniProt Q12809); assay: Inhibition of hERG at 10 uM by Q-patch clamp method relative to control; type: toxicity
[24] = Genotoxicity in Salmonella typhimurium by Ames II test; type: toxicity; conditions: salmonella enterica subsp. enterica serovar typhimurium
[25] = Solubility of compound in FaSSIF; type: physicochemical
[26] = Solubility of compound in SGF; type: physicochemical
PXR [27] = target: T6, PXR (Homo sapiens, UniProt O75469); assay: Activation of human PXR at 5 uM relative to control; type: toxicity; conditions: read-out: Activity
T6 sequence (O75469 whole entry): T1 sequence (O75469 whole entry)

PXR [28] = target: T6, PXR; assay: Activation of human PXR at 10 uM relative to control; type: toxicity; conditions: read-out: Activity
[29] = Plasma protein binding in dog assessed as unbound fraction; type: ADME, cell-free, Canis lupus familiaris

T2 sequence (P08684 whole entry): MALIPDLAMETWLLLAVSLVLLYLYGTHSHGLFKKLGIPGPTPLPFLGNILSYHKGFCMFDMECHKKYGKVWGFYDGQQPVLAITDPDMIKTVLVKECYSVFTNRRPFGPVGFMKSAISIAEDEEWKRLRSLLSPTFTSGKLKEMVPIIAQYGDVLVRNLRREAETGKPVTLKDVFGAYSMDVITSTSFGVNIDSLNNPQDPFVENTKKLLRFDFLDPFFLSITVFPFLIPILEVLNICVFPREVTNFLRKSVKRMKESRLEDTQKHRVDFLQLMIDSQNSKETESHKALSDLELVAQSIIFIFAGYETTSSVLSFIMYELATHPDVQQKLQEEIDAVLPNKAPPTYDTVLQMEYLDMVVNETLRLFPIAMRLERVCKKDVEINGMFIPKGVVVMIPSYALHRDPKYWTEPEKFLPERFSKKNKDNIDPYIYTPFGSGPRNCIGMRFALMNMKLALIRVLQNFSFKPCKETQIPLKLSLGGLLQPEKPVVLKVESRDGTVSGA
Sequence of Cytochrome P450 2D6 (P10635 whole entry): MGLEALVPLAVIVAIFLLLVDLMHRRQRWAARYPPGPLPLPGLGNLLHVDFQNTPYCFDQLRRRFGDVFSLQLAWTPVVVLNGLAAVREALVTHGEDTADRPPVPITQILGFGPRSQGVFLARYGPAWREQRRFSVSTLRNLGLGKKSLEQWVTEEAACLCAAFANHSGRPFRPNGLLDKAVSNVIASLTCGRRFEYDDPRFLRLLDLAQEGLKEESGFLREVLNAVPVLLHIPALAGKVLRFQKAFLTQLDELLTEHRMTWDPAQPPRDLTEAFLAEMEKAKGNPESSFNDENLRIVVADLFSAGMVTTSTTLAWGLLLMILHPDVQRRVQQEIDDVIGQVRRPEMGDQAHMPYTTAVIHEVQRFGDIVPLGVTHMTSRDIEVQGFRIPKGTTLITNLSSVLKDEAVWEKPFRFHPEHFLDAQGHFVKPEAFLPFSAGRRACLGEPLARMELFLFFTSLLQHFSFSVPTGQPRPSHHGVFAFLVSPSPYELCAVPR
Sequence of hERG (Q12809 whole entry): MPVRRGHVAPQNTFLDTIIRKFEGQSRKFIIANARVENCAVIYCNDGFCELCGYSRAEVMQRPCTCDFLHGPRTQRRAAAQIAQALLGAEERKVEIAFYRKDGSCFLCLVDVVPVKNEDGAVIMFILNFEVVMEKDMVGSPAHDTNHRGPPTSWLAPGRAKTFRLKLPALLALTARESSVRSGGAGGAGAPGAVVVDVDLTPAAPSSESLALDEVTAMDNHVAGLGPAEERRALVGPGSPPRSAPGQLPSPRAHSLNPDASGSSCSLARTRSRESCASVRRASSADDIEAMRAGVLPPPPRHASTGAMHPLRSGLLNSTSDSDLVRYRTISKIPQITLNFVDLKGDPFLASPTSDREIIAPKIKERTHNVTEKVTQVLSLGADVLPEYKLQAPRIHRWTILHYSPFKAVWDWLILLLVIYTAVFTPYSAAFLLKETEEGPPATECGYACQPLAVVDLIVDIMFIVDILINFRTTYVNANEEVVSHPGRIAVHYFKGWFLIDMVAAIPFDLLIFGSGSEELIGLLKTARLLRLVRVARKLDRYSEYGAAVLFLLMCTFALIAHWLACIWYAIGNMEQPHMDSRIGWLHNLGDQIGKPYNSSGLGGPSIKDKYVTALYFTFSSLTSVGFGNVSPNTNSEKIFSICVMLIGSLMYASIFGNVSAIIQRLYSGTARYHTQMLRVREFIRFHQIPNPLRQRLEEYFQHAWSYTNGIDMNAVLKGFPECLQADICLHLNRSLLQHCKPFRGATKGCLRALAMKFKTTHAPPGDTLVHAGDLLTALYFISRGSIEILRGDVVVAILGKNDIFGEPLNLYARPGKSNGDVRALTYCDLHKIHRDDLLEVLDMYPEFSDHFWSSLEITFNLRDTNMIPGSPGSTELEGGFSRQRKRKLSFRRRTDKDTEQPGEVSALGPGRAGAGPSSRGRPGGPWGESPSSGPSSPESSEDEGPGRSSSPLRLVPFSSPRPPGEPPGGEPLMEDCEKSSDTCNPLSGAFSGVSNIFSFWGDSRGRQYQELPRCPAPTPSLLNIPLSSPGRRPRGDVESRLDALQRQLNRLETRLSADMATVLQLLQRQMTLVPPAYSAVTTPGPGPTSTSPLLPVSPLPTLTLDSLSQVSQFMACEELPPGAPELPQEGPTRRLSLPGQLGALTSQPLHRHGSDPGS
Sequence of Voltage-gated inwardly rectifying potassium channel KCNH2 (Q12809 whole entry): as above
Sequence of Cytochrome P450 2C19 (P33261 whole entry): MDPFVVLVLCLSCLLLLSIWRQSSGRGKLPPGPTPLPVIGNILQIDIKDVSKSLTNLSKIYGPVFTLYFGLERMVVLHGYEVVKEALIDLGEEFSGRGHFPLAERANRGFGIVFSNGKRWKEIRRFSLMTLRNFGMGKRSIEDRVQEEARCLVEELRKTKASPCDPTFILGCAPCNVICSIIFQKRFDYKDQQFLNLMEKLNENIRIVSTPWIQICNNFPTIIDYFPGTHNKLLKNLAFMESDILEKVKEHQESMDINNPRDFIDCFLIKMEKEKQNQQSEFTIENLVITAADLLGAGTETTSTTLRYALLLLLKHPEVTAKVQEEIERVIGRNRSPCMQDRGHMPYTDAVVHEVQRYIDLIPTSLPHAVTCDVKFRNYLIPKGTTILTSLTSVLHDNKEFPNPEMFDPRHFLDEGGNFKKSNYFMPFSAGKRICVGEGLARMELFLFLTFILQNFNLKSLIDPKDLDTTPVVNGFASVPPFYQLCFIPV
Sequence of Cytochrome P450 2C9 (P11712 whole entry): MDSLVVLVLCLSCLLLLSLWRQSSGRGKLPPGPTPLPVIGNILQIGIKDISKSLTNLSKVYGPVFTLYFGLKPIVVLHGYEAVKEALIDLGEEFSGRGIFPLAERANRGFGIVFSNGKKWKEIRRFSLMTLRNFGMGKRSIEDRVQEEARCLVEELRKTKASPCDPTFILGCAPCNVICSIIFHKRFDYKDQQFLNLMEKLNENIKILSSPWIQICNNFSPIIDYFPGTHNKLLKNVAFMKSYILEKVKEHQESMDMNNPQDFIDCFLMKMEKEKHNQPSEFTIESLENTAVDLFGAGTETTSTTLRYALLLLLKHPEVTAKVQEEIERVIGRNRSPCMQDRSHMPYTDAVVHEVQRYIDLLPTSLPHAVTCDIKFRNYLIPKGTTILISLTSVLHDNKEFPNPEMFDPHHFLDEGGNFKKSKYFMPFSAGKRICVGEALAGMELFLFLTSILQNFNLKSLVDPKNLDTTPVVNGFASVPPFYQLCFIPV

C[C@H]1CCCN1C(=O)c1nc(C(=O)NCC(C)(C)O)sc1-c1ccc(C(O)(C(F)(F)F)C(F)(F)F)c(Cl)c1Cl
solubility [1]: < 4 µM
solubility [2]: < 4 µM
Activity [3]: 18%
Activity (Cytochrome P450 3A4 [4]): 26%
pIC50 [5]: 6.92
pIC50 [6]: 6.68
half-life [7]: > 180 min
half-life [8]: > 180 min
half-life [9]: > 180 min
fraction unbound [10]: 0.008
fraction unbound [11]: 0.012
fraction unbound [12]: 0.008
Vdss [13]: 1.3 L/kg
half-life [14]: 246 min
bioavailability [15]: 69%
Vdss [16]: 1.5 L/kg
half-life [17]: 1570 min
bioavailability [18]: 100%
pIC50 (Cytochrome P450 3A4 [19]): 4.70
pIC50 (Cytochrome P450 2C8): 4.74
pIC50 (Cytochrome P450 2C9): 5.36
pIC50 (Cytochrome P450 2C19): 4.51
pIC50 (Cytochrome P450 2D6): 5.42
TDI (Cytochrome P450 3A4 [20]): Not_active
Activity [21]: Not_active
Activity [22]: Not_active
pIC50 [23]: 4.53
inhibition at 10 µM (hERG): 52%
Activity [24]: Non-toxic
solubility [25]: < 4 µM
solubility [26]: < 4 µM
activity at 5 µM (PXR [27]): 21%
activity at 10 µM (PXR [28]): 42%
fraction unbound [29]: 0.009
